pIC50: −log10 of the molar value. Active and inactive are the calls of the source. The rule behind the calls is not given here.
What was measured:
NCI-H1975 = assay: Antiproliferative activity against human NCI-H1975 cells assessed as reduction in cell viability; format: functional, cell-based
MOLM-13 = assay: Antiproliferative activity against human MOLM13 cells assessed as reduction in cell viability measured after 48 hrs by CellTiter-Glo assay; format: functional, cell-based; details: MOLM-13, 48 h
CCRF-CEM = assay: Growth inhibition of human CCRF-CEM cells assessed as cell growth inhibition incubated for 48 hrs by sulforhodamine B assay; format: functional
A549 [1] = assay: Growth inhibition of human A549/ATCC cells assessed as cell growth inhibition incubated for 48 hrs by sulforhodamine B assay; format: functional; details: A549, 48 h
HOP-62 = assay: Growth inhibition of human HOP62 cells assessed as cell growth inhibition incubated for 48 hrs by sulforhodamine B assay; format: functional; details: HOP-62, 48 h
NCI-H322M = assay: Growth inhibition of human NCI-H322M cells assessed as cell growth inhibition incubated for 48 hrs by sulforhodamine B assay; format: functional
HCC 2998 = assay: Growth inhibition of human HCC2998 cells assessed as cell growth inhibition incubated for 48 hrs by sulforhodamine B assay; format: functional; details: HCC 2998, 48 h
HCT-116 = assay: Growth inhibition of human HCT116 cells assessed as cell growth inhibition incubated for 48 hrs by sulforhodamine B assay; format: functional; details: HCT-116, 48 h
HT-29 = assay: Growth inhibition of human HT-29 cells assessed as cell growth inhibition incubated for 48 hrs by sulforhodamine B assay; format: functional; details: HT-29, 48 h
SF-268 = assay: Growth inhibition of human SF268 cells assessed as cell growth inhibition incubated for 48 hrs by sulforhodamine B assay; format: functional; details: SF-268, 48 h
SF-539 = assay: Growth inhibition of human SF539 cells assessed as cell growth inhibition incubated for 48 hrs by sulforhodamine B assay; format: functional; details: SF-539, 48 h
LOX IMVI = assay: Growth inhibition of human LOXIMVI cells assessed as cell growth inhibition incubated for 48 hrs by sulforhodamine B assay; format: functional
Malme-3M = assay: Growth inhibition of human MALME-3M cells assessed as cell growth inhibition incubated for 48 hrs by sulforhodamine B assay; format: functional
MDA-MB-435 = assay: Growth inhibition of human MDA-MB-435 cells assessed as cell growth inhibition incubated for 48 hrs by sulforhodamine B assay; format: functional; details: MDA-MB-435, 48 h
SK-MEL-2 = assay: Growth inhibition of human SK-MEL-2 cells assessed as cell growth inhibition incubated for 48 hrs by sulforhodamine B assay; format: functional; details: SK-MEL-2, 48 h
SK-MEL-28 = assay: Growth inhibition of human SK-MEL-28 cells assessed as cell growth inhibition incubated for 48 hrs by sulforhodamine B assay; format: functional; details: SK-MEL-28, 48 h
SK-MEL-5 = assay: Growth inhibition of human SK-MEL-5 cells assessed as cell growth inhibition incubated for 48 hrs by sulforhodamine B assay; format: functional; details: SK-MEL-5, 48 h
UACC-62 = assay: Growth inhibition of human UACC62 cells assessed as cell growth inhibition incubated for 48 hrs by sulforhodamine B assay; format: functional; details: UACC-62, 48 h
IGROV-1 = assay: Growth inhibition of human IGROV1 cells assessed as cell growth inhibition incubated for 48 hrs by sulforhodamine B assay; format: functional; details: IGROV-1, 48 h
OVCAR-3 = assay: Growth inhibition of human OVCAR3 cells assessed as cell growth inhibition incubated for 48 hrs by sulforhodamine B assay; format: functional; details: OVCAR-3, 48 h
OVCAR-4 = assay: Growth inhibition of human OVCAR4 cells assessed as cell growth inhibition incubated for 48 hrs by sulforhodamine B assay; format: functional; details: OVCAR-4, 48 h
OVCAR-5 = assay: Growth inhibition of human OVCAR5 cells assessed as cell growth inhibition incubated for 48 hrs by sulforhodamine B assay; format: functional; details: OVCAR-5, 48 h
SK-OV-3 = assay: Growth inhibition of human SKOV3 cells assessed as cell growth inhibition incubated for 48 hrs by sulforhodamine B assay; format: functional; details: SK-OV-3, 48 h
786-0 = assay: Growth inhibition of human 786-0 cells assessed as cell growth inhibition incubated for 48 hrs by sulforhodamine B assay; format: functional; details: 786-0, 48 h
PC-3 = assay: Growth inhibition of human PC3 cells assessed as cell growth inhibition incubated for 48 hrs by sulforhodamine B assay; format: functional; details: PC-3, 48 h
DU-145 [2] = assay: Growth inhibition of human DU145 cells assessed as cell growth inhibition incubated for 48 hrs by sulforhodamine B assay; format: functional; details: DU-145, 48 h
Hs-578T = assay: Growth inhibition of human Hs 578T cells assessed as cell growth inhibition incubated for 48 hrs by sulforhodamine B assay; format: functional
BT-549 = assay: Growth inhibition of human BT549 cells assessed as cell growth inhibition incubated for 48 hrs by sulforhodamine B assay; format: functional; details: BT-549, 48 h
T47D = assay: Growth inhibition of human T47D cells assessed as cell growth inhibition incubated for 48 hrs by sulforhodamine B assay; format: functional
MDA-MB-468 = assay: Growth inhibition of human MDA-MB-468 cells assessed as cell growth inhibition incubated for 48 hrs by sulforhodamine B assay; format: functional; details: MDA-MB-468, 48 h
MV4-11 [3] = assay: Antiproliferative activity against human MV4-11 cells assessed as reduction in cell viability; format: functional, cell-based
A-375 = assay: Antiproliferative activity against human A375 cells assessed as reduction in cell viability; format: functional, cell-based
DU-145 [4] = assay: Antiproliferative activity against human DU145 cells assessed as reduction in cell viability; format: functional, cell-based
A549 [5] = assay: Antiproliferative activity against human A549 cells assessed as reduction in cell viability; format: functional, cell-based
NCI-H1650 = assay: Antiproliferative activity against human NCI-H1650 cells assessed as reduction in cell viability; format: functional, cell-based
MV4-11 [6] = assay: Induction of apoptosis in human MV4-11 cells at < 100 nM measured after 24 hrs by Annexin V-FITC/propidium iodide staining based FACScan flow cytometry relative to control; format: functional
[7] = target: T1, Protein cereblon/Bromodomain-containing protein 4/Cullin-4A (Homo sapiens) (UniProt O60885+Q96SW2+Q13619); assay: Protac activity at cereblon/cullin4A/BRD4 in human MV4-11 cells assessed as induction of BRD4 degradation at 10 nM measured after 18 hrs by Western blot analysis; format: cell-based
[8] = target: T1, Protein cereblon/Bromodomain-containing protein 4/Cullin-4A (Homo sapiens); assay: Protac activity at cereblon/cullin4A/BRD4 in human MV4-11 cells assessed as induction of BRD4 degradation at 1 to 500 nM measured after 18 hrs by Western blot analysis; format: cell-based
[9] = target: Protein cereblon/Bromodomain-containing protein 2/Cullin-4A (Homo sapiens) (UniProt P25440+Q96SW2+Q13619); assay: Protac activity at cereblon/cullin4A/BRD2 in human MV4-11 cells assessed as induction of BRD2 degradation at 50 nM measured after 18 hrs by Western blot analysis; format: cell-based
[10] = target: Protein cereblon/Bromodomain-containing protein 3/Cullin-4A (Homo sapiens, UniProt Q15059+Q96SW2+Q13619); assay: Protac activity at cereblon/cullin4A/BRD3 in human MV4-11 cells assessed as induction of BRD3 degradation at 50 nM measured after 18 hrs by Western blot analysis; format: cell-based; details: mv4-11, 18 h, 0.05 µM
Protein cereblon/Bromodomain-containing protein 3/Cullin-4A, sequence (Q15059 whole entry): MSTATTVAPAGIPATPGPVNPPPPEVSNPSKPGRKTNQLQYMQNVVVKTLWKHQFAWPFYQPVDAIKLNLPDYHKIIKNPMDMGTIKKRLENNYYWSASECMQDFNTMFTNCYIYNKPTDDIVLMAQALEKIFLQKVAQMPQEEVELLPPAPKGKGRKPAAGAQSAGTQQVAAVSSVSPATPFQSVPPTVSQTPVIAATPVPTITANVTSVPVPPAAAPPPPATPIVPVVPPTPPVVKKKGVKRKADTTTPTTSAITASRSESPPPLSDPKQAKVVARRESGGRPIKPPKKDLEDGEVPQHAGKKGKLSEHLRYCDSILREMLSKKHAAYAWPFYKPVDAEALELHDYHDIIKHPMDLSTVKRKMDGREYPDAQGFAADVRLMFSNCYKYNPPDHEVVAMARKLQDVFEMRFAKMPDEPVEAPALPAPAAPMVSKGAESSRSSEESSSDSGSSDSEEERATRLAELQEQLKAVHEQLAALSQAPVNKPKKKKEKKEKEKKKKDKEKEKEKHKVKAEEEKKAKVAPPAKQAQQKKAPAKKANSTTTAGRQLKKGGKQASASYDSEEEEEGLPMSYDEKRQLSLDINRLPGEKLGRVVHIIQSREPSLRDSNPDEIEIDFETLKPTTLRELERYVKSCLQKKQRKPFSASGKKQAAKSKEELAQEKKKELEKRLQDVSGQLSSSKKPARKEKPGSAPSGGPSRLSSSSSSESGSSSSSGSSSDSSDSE
Protein cereblon/Bromodomain-containing protein 3/Cullin-4A, sequence (Q96SW2 whole entry): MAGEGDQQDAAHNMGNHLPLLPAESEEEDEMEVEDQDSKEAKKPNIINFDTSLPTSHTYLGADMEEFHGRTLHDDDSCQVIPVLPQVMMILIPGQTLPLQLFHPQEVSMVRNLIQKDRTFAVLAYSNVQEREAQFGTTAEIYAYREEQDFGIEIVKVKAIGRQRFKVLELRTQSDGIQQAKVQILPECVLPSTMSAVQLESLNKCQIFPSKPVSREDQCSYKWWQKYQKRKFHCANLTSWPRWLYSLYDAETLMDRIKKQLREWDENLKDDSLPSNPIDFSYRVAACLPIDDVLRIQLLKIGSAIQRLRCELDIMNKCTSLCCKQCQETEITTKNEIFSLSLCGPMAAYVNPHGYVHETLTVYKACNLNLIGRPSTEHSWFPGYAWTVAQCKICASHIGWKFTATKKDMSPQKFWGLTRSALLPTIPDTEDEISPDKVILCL
Protein cereblon/Bromodomain-containing protein 3/Cullin-4A, sequence (Q13619 whole entry): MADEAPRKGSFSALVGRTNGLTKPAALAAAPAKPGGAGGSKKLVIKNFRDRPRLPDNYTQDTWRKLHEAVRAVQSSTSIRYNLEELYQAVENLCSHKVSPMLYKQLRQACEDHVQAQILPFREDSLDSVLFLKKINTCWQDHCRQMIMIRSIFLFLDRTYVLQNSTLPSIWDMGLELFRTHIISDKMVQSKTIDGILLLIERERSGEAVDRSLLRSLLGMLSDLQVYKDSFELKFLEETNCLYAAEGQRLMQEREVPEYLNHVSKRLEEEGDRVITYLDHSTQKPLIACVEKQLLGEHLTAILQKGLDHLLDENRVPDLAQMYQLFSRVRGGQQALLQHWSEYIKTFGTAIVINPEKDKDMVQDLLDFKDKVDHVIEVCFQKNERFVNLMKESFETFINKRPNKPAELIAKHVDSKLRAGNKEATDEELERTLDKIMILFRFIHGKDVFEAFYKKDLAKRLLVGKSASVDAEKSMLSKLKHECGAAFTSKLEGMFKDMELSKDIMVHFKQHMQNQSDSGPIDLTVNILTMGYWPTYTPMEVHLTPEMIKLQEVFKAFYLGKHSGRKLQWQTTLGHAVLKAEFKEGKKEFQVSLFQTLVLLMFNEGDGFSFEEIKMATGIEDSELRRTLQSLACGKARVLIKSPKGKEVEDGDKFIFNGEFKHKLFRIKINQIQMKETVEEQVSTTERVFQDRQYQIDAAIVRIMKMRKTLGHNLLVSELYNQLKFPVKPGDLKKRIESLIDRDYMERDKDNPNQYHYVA

Protein cereblon/Bromodomain-containing protein 2/Cullin-4A (Homo sapiens), sequence (P25440 whole entry, looked up): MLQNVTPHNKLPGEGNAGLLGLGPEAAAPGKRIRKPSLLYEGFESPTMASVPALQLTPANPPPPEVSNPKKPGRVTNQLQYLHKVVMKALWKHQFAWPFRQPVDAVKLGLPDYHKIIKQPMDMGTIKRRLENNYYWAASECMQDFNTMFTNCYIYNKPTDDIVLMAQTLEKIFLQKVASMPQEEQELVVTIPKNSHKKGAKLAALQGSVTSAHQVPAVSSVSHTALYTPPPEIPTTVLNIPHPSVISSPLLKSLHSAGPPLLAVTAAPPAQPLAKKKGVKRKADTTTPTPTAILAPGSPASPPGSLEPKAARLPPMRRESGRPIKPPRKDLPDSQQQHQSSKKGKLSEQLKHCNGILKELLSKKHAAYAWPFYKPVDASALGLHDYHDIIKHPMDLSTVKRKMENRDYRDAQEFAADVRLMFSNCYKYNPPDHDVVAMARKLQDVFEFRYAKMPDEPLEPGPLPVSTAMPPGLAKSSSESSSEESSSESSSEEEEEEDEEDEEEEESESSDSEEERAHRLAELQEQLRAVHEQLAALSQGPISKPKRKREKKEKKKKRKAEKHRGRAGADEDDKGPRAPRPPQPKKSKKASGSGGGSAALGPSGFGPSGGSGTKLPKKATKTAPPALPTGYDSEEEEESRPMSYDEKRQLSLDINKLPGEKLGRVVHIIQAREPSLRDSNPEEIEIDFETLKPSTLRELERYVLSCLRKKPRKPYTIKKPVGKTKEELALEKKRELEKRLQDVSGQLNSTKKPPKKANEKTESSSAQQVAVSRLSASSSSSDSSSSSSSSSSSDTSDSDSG
Protein cereblon/Bromodomain-containing protein 2/Cullin-4A (Homo sapiens), sequence (Q13619 whole entry, looked up): as the sequence (Q13619 whole entry) above
Protein cereblon/Bromodomain-containing protein 2/Cullin-4A (Homo sapiens), sequence (Q96SW2 whole entry, looked up): as the sequence (Q96SW2 whole entry) above

Work on `COc1ccccc1S(=O)(=O)Nc1ccc2c3c(cc(CCC(=O)NCCCCNc4cccc5c4C(=O)N(C4CCC(=O)NC4=O)C5=O)cc13)C(=O)N2C` (stereo not given) yielded a pIC50 (NCI-H1975) of 6.34, a pIC50 (MOLM-13) of 7.28 and a GI50 (CCRF-CEM) of 28 nM. For the same compound, the GI50 (A549 [1]) was 5260 nM, the GI50 (HOP-62) was 416 nM and the GI50 (NCI-H322M) was 355 nM. It also gave a GI50 (HCC 2998) of 316 nM, a GI50 (HCT-116) of 3660 nM and a GI50 (HT-29) of 3770 nM. The GI50 (SF-268) was 366 nM, the GI50 (SF-539) was 752 nM and the GI50 (LOX IMVI) was 3970 nM. For the same compound, the GI50 (Malme-3M) was 161 nM, the GI50 (MDA-MB-435) was 819 nM and the GI50 (SK-MEL-2) was 1120 nM. For the same compound, the GI50 (SK-MEL-28) was 891 nM, the GI50 (SK-MEL-5) was 1120 nM and the GI50 (UACC-62) was 5450 nM. For the same compound, the GI50 (IGROV-1) was 145 nM, the GI50 (OVCAR-3) was 1830 nM and the GI50 (OVCAR-4) was 259 nM. It also gave a GI50 (OVCAR-5) of 2740 nM, a GI50 (SK-OV-3) of 1630 nM and a GI50 (786-0) of 2110 nM. The GI50 (PC-3) was 248 nM, the GI50 (DU-145 [2]) was 5910 nM and the GI50 (Hs-578T) was 186 nM. For the same compound, the GI50 (BT-549) was 78 nM, the GI50 (T47D) was 34 nM and the GI50 (MDA-MB-468) was 20 nM. It also gave a pIC50 (MV4-11 [3]) of 8.01, a pIC50 (A-375) of 5.61 and a pIC50 (DU-145 [4]) of 5.44. For the same compound, the pIC50 (A549 [5]) was 4.86, the pIC50 (NCI-H1650) was 5.88 and the Activity (MV4-11 [6]) was 80%. For the same compound, the Activity [7] was “Active”, the Activity [8] was “Active” and the Activity [9] was “Active”. The Activity [10] was “Not Active”.

— ChEMBL document CHEMBL4609992, “Discovery of novel small molecule induced selective degradation of the bromodomain and extra-terminal (BET) bromodomain protein BRD4 and BRD2 with cellular potencies” (Bioorg Med Chem, 2020)
